Counter-ions that a name gives are not always drawn.
What was measured:
[1] = physical stability: conversion to a hydrated form during aqueous based processing (wet granulation); assay type: physicochemical; details: during essential manufacturing processes / aqueous based processing steps, e.g. wet granulation; tris salt compared to free acid
solubility = assay type: physicochemical; details: tris salt compared to free acid
absorption (Cmax, Tmax) = assay type: in vivo; details: tris salt compared to free acid

physical stability (remains in original form, no conversion by hydration) [1]	solubility (solubility)	Cmax (absorption (Cmax, Tmax))	Tmax (absorption (Cmax, Tmax); indicates faster absorption)	Compound
readily convert to a hydrated form	–	–	–	CCCCCn1c(=O)[nH]c(=O)c2[nH]c(Cl)nc21 [free acid, 8-chloro-3-pentyl-3,7-dihydro-1H-purine-2,6-dione]
enhanced physical stability	higher solubility than the free acid	increased	decreased	CCCCCn1c(=O)[nH]c(=O)c2[nH]c(Cl)nc21 [tris salt, 8-chloro-3-pentyl-3,7-dihydro-1H-purine-2,6-dione trishydroxymethylaminomethane]

Source: US9163024B2, “Tris salts of 8-chloro-3-pentyl-3,7-dihydro-1H-purine-2,6-dione” (GlaxoSmithKline LLC, priority 2008, dated 2015)
